# Like-named read-outs stand apart in the source and are kept apart here.
# Key:
# KRAS G12C-SOS1 = KRAS G12C-SOS1 (Homo sapiens (Human), UniProt Q07889); experiment: Inhibition test of compounds on KRAS G12C::SOS1 binding; conditions: GST-KRAS G12C, His-SOS1
# Procedure: The compound to be tested was prepared into a 10 mM stock solution with DMSO, and the compound was serially diluted using 1× test buffer. 0.1 μL of the compound solution with different concentrations was transferred to a 384-well plate. […] 5 μL of His-SOS1 was added to the 384-well plate, centrifuged at 1000 rpm for 1 min, and incubated at room temperature for 15 min.
# After incubation, 10 μL of a mixed solution of anti-6his-Tb monoclonal antibody (Cisbio, Cat. No. 61HI2TLA) and anti-GST-XL665 monoclonal antibody (Cisbio, Cat. No. 61GSTXLA) was added to the test well, centrifuged at 1000 rpm for 1 min, and incubated at room temperature for 1 h.
# After incubation, the fluorescence signal ratios at 665 nm and 615 nm were read on a multifunctional microplate reader (Perkin Elmer, Envision 2104), and the IC50 values were calculated using Graphpad 5 software.
# H358 cells = experiment: Inhibition of 3D cell proliferation (3D CellTiter-Glo); assay type: cell-based; conditions: Homo sapiens, NCI-H358, 168 h, read-out: IC50 (nM), inhibition of 3D proliferation of H358 cells, 7 days
# Procedure: H358 cells were seeded in a T75 culture flask and cultured in a RPMI 1640 medium containing 10% FBS for 2 days for subsequent experiments in which the cells would be cultured or seeded on a 384-well plate.
# On day 1, the cells were seeded on the 384-well plate, with 40 μL of medium added per well and serially diluted compounds or DMSO added per well, and an additional well without seeded cells but with medium was set up as a blank control. After culture at 37° C., 5% CO2 for 7 days, the plate was added with 3D CellTiter-Glo reagent (Promega, Cat. No. G9683) on day 8, shaken at 320 rpm for 20 min, and left at room temperature for 2 h. Luminescence signals were read on a multifunctional microplate reader. Cell viability inhibition rate was calculated as:
# Cell viability inhibition rate=(DMSO group−test compound)/(DMSO group−blank control group)×100%
# IC50 values were calculated using Graphpad 5 software.
# [1] = Plasma protein binding by equilibrium dialysis, human plasma; assay type: in vitro ADME; conditions: 37° C., read-out: Free fraction in plasma, Human (%)
# Procedure: Plasma protein binding rate of compounds was detected by equilibrium dialysis (HTDialysis, HTD 96b). The compound was prepared into a […] stock solution with DMSO, and then 25-fold diluted with 0.05 M sodium phosphate buffer as a working solution. A blank 96-well plate was taken and preloaded with 380 μL of plasma per well. The plasma was then added with the working solution at 20 μL/well and mixed well, with the compound at a final concentration of 1 μM, containing 0.2% DMSO per well.
# 100 μL of 0.05 M sodium phosphate buffer was added to the reception-side of each dialysis chamber (HTD 96b), and then 100 μL of plasma containing the compound was added to the supply-side. The dialysis chamber was covered with a plastic lid, shaken and incubated at 37° C. for 5 h.
# After incubation, 25 μL of samples were taken from each of the supply-side and the reception-side of the dialysis chamber and placed in the blank 96-well plate. An equal volume of plasma was added to each of the supply-side samples while an equal volume of 0.05 M sodium phosphate buffer was added to each of the reception-side samples and mixed well. The 96-well plate was added with an acetonitrile solution containing internal standard at 200 μL per well, vortexed and shaken at 600 rpm for 10 min, and centrifuged at 5594 g for 15 min (Thermo Multifuge×3R). 50 μL of the supernatant was then transferred to a new 96-well plate, and the samples were mixed with 50 μL of ultra-pure water for LC-MS/MS analysis.
# Plasma protein binding rate and free fraction were calculated using the following formulas: % binding rate=100×([supply-side concentration]5h−[reception-side concentration]5h)/[supply-side concentration]5h. % free fraction=100−% binding rate.
# CYP3A4 = CYP3A4 (Homo sapiens (Human), UniProt P08684); experiment: Inhibition test on cytochrome P450 subtype CYP3A4; assay type: in vitro ADME; conditions: compound 10 μM, human liver microsomes
# Procedure: The inhibitory potential of compounds on cytochrome P450 (CYP450) subtype CYP3A4 (two substrates of midazolam and testosterone) was detected. First, the compound to be tested was prepared into a 10 mM stock solution in DMSO solvent, and the CYP3A4 inhibitor ketoconazole was prepared as 10 mM, 2.5 mM and 2.5 mM stock solutions in DMSO solvent. The test compound and ketoconazole were diluted to 400-fold final concentration (compound: 10 μM, ketoconazole: 2.5 μM) with acetonitrile.
# NADPH cofactor (10 mL of potassium phosphate buffer added with 66.7 mg NADPH) at 4-fold final concentration and substrates were prepared with potassium phosphate buffer (0.1 M, pH=7.4), with CYP3A4 substrate midazolam at a final concentration of […] and CYP3A4 substrate testosterone at a final concentration of 20 μM.
# A human liver microsome solution at a concentration of 0.2 mg/mL was prepared with potassium phosphate buffer on ice. A solution of the compound to be tested and a control inhibitor (control compound) solution at 2-fold final concentration were prepared with the human liver microsome solution on ice. The test wells were added with […] of the test compound solution and the control inhibitor solution respectively, and then added with […] of the substrate for duplication. A 96-well assay plate and a NADPH solution were incubated at 37° C. for 5 min, and 15 μL of pre-heated 8 mM NADPH solution was added to the assay plate to initiate the reaction. A CYP3A4 assay plate was pre-incubated at 37° C. for 5 min. The plate was added with 120 μL of acetonitrile to terminate the reaction, and after quenching, the plate was shaken on a shaker (IKA, MTS 2/4) for 10 min (600 rpm/min), and then centrifuged for 15 min. After centrifugation, the supernatant was collected, and added with purified water in a ratio of 1:1 to perform LC-MS/MS detection. A ratio of a peak area of compound to a peak area of internal standard was obtained, and the peak area ratio of the compound was compared with the peak area ratio of the control inhibitor to calculate the inhibition rate.
# [2] = pH 7.4, probe midazolam, substrate midazolam, read-out: CYP inhibition rate (%) CYP3A4 (midazolam)
# [3] = pH 7.4, probe testosterone, substrate testosterone, read-out: CYP inhibition rate (%) CYP3A4 (testosterone)
# Chain of CYP3A4 (P08684 whole entry): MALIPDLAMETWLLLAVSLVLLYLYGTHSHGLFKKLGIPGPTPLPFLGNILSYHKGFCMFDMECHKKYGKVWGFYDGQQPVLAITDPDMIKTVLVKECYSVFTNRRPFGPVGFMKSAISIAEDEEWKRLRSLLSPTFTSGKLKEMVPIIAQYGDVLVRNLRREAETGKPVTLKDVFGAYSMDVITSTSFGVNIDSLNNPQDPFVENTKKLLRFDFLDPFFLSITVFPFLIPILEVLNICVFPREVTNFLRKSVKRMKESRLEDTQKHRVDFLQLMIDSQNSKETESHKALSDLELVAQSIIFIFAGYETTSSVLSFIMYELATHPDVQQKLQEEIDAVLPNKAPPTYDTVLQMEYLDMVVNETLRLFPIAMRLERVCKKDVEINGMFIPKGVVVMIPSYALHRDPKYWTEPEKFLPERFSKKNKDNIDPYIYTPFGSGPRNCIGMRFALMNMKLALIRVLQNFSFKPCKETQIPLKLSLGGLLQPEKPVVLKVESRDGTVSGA
# Chain of KRAS G12C-SOS1 (Q07889 whole entry, stated change not applied): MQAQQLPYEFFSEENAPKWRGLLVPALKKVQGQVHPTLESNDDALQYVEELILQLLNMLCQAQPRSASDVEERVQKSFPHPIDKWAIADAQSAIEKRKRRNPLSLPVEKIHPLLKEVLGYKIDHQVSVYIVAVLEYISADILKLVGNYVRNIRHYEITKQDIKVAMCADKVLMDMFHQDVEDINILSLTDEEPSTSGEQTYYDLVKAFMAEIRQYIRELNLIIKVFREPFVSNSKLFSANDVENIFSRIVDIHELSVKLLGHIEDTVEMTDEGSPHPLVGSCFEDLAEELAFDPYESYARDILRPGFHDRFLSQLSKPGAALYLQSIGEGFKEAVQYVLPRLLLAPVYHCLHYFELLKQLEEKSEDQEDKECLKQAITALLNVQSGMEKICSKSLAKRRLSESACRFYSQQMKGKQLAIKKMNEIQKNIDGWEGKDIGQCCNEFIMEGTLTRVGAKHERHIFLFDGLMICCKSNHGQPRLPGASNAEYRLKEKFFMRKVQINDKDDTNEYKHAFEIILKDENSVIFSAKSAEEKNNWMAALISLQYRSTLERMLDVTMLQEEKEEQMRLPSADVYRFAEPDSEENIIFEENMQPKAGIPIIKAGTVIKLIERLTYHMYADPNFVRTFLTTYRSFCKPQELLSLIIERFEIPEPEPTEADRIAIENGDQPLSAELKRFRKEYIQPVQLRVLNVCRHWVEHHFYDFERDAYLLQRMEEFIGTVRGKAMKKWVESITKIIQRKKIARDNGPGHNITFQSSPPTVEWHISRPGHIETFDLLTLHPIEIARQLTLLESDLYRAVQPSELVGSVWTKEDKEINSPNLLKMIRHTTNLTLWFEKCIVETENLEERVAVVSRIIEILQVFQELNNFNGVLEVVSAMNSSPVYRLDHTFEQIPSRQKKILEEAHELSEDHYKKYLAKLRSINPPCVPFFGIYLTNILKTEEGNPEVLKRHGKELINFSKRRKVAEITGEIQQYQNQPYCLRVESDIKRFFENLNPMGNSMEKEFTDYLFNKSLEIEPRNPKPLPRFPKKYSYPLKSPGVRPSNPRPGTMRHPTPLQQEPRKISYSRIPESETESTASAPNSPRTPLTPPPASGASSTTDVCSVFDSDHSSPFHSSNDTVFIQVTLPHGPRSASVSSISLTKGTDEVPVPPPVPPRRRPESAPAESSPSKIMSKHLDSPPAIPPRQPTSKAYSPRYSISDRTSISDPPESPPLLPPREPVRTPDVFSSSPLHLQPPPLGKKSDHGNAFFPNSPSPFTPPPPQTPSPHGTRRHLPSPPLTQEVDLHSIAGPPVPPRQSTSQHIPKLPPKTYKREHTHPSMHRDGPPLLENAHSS
SMILES,IC50 (KRAS G12C-SOS1),IC50 (H358 cells),"fraction unbound at 5 h, 1 µM [1]","inhibition at 5 min, 10 µM (CYP3A4; [2])","inhibition at 5 min, 10 µM (CYP3A4; [3])"
"Cc1nc(N[C@H](C)c2cccc(S(=O)(=O)C(F)F)c2C)c2cn(C3(CF)CC3)c(=O)cc2n1 [Compound I-1, (R)-4-((1-(3-((difluoromethyl)sulfonyl)-2-methylphenyl)ethyl)amino)-6-(1-(fluoromethyl)cyclopropyl)-2-methylpyrido[4,3-d]pyrimidin-7(6H)-one]",6.87 nM,26 nM,0.042,17.8%,0%
"Cc1nc(N[C@H](C)c2cccc(S(=O)(=O)C(F)(F)F)c2F)c2cn(C3(CF)CC3)c(=O)cc2n1 [Compound I-2, (R)-4-((1-(2-fluoro-3-((trifluoromethyl)sulfonyl)phenyl)ethyl)amino)-6-(1-(fluoromethyl)cyclopropyl)-2-methylpyrido[4,3-d]pyrimidin-7(6H)-one]",7.73 nM,13.9 nM,0.015,10.8%,0%

# Source: patent US20240166645A1, “PYRIDOPYRIMIDINONE DERIVATIVE, PREPARATION METHOD THEREFOR, AND USE THEREOF” (Wuhan Humanwell Innovative Drug Research and Development …, priority 2021, published 2024)
